Data from paper PMC9655245, “Dual Inhibitors of AChE and BACE-1 for Reducing Aβ in Alzheimer’s Disease: From In Silico to In Vivo” (International Journal of Molecular Sciences, 2022).

Tests used:
Format in all cases: biochemical
[1] = target: T1, AChE (acetylcholinesterase) (Homo sapiens, UniProt P22303); assay: Ellman assay, absorbance at […] nm, 7-point dose response
T1 construct: recombinant, produced in stably expressing CHO-K1 cell line

[2] = target: T2, BACE-1 (β-secretase, beta-site APP cleaving enzyme 1) (Homo sapiens, UniProt P56817); assay: fluorogenic Mca/Dnp peptide cleavage, single point
T2 construct: gene BACE1; commercial recombinant enzyme (R&D Systems 931-AS)
Source text: fluorogenic Mca/Dnp peptide cleavage, single point on BACE-1 (β-secretase, beta-site APP cleaving enzyme 1)

[3] = target: T2, BACE-1 (β-secretase, beta-site APP cleaving enzyme 1); assay: fluorogenic Mca/Dnp peptide cleavage, 5-point dose response
[4] = target: T1, AChE (acetylcholinesterase); assay: Ellman assay, absorbance at […] nm, single point

T1 sequence (P22303 32-614): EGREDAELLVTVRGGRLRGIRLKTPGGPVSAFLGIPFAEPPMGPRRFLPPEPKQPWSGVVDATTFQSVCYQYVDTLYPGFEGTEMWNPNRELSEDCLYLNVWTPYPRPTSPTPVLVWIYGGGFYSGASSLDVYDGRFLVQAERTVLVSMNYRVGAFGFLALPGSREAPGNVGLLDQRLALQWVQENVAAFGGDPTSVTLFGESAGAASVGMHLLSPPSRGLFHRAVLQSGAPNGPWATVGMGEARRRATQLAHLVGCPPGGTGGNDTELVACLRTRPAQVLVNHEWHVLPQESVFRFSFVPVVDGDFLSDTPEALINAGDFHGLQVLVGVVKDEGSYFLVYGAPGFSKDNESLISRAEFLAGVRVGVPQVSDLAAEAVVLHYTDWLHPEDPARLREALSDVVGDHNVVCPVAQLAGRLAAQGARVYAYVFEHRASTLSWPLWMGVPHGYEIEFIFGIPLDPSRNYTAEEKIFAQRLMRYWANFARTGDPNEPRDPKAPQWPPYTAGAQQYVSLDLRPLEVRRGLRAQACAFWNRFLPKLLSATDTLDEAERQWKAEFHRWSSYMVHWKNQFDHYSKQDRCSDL
T2 sequence (P56817 46-457 limits assumed): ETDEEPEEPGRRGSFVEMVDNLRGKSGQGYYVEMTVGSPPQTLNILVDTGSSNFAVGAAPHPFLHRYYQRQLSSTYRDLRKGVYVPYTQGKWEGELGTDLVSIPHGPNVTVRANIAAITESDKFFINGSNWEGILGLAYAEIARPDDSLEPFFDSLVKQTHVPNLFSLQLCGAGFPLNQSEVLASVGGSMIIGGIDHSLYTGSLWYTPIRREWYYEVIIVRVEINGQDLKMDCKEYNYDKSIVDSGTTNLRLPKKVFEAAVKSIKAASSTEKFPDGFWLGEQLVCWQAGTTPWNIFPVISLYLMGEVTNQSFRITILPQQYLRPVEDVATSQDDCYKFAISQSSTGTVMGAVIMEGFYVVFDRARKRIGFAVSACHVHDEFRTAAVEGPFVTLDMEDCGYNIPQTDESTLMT

SMILES | IC50 [1] | inhibition at 100 µM [2] | IC50 [3] | inhibition at 10 µM [4]
Cc1ccc(Cn2c(=O)c(N3CCC(C(=O)NCCN4CCCCC4C)CC3)nc3ccccc32)cc1 (stereo not drawn) [compound 1, C700-2595] | 8.2 µM | 19% |  | 
CCn1c(=O)c(N2CCCC(C(=O)NC3CCN(Cc4ccccc4)CC3)C2)nc2ccccc21 (stereo not drawn) [compound 2, F681-0222] | 4.4 µM |  | 63 µM | 
Cn1c(=O)c(N2CCCC(C(=O)NC3CCN(Cc4ccccc4)CC3)C2)nc2ccccc21 (stereo not drawn) [compound 3, F681-0412] | 6.7 µM |  | 55 µM | 
CCN1CCCC1CNC(=O)CCc1nnc2n(CCc3ccccc3)c(=O)c3ccccc3n12 (stereo not drawn) [compound 4, C741-0335] | 9.7 µM | 6% |  | 
COc1cccc(N2CC(C(=O)Nc3ccccc3CN(C)C3CCCCC3)CC2=O)c1 (stereo not drawn) [compound 5, T6769894] |  |  | 60 µM | 19%
CCOc1cccc(C2CC(c3ccc(C)cc3)=NC3(CCN(C(C)=O)CC3)N2)c1O (stereo not drawn) [compound 6, Z274-0419] |  |  | 150 µM | -12%
